We go through seven compounds from patent US20220331374A1, “NOVEL SKIN CARE COMPOSITION” (BEIERSDORF AG, priority 2019, published 2022).

In test [1] the test system is C. acnes strain C3. Nature of the test: Minimum inhibitory concentration (MIC) of cosmetic excipients, strain C3. Format: cell-based, Cutibacterium acnes. As to conditions: % w/vol, incubated anaerobically for 3 days at 37° C., scored visually for growth. The protocol:
(§1) In microbiology, the MIC is the lowest concentration of a chemical which prevents visible growth of bacterium. The resulted MIC value depends both on the microorganism and the test compound. The MIC is determined by preparing concentrations series of the test compound in vitro, incubating the solutions with the separate batches of cultured bacteria, and measuring the results using agar dilution or broth microdilution. For the experiments with C. acnes strains C3 and K8, media comprising yeast extract soy peptone and dextrose were used. The MIC is determined by turbidity.
(§2) A total of 125 cosmetic excipients were tested for their compatibility with C. acnes strains C3 and K8. Hydrophilic compounds were tested in a 96-well plate liquid broth format, poorly soluble compounds were pre-dissolved in DMSO before dilution in liquid broth and hydrophobic or solid compounds were tested in an agar well diffusion test assay. The different dilutions of the test excipients in media were prepared in Falcon tubes and then distributed in a deep well plate using a multistepper. Each well received 1.2 ml and was subsequently inoculated with 120 μl of C. acnes bacteria suspension (strain C3 and K8). From the deep well plate 200 μl were transferred in each well of a clear 96 well replicate plate. The leftover was discarded. The plates were then incubated anaerobically for 3 days at 37° C. Following incubation, the test plates were visually examined and wells were scored for growth or complete growth inhibition to define the minimum inhibitory concentration.
(§3) These excipients are listed in the below table with their compatibility values for C. acnes strains C3 and K8. The compatibility values represent the MIC value of the listed ingredients with the tested C. acnes strains. At this concentration [% w/vol] the tested compound starts interfering with the growth of the tested strains. The compounds can be used in formulations at concentrations below this concentration.

The subject of test [2] is C. acnes strain K8. The test is described as follows: Minimum inhibitory concentration (MIC) of cosmetic excipients, strain K8. Format: cell-based, Cutibacterium acnes. As to conditions: % w/vol, incubated anaerobically for 3 days at 37° C., scored visually for growth. On the procedure:
as §1, §2, §3

For `CCO` [ethanol], the “COMPATABILITY VALUE C3 [%]” value in test [1] was determined as 3.75%. In addition, the “COMPATABILITY VALUE K8 [%]” value in test [2] was 3.75%.

For tocopherol, the “COMPATABILITY VALUE C3 [%]” value in test [1] turned out to be 1.50%. Moreover, the “COMPATABILITY VALUE K8 [%]” value in test [2] is listed as 1.50%.

As for ethylhexyl cocoate, the “COMPATABILITY VALUE C3 [%]” value in test [1] came to 10.00%. In addition, the “COMPATABILITY VALUE K8 [%]” value in test [2] is listed as 10.00%.

As to `CCCCCCC(O)CO` (centres unmarked) [caprylyl glycol], the “COMPATABILITY VALUE C3 [%]” value in test [1] is 0.18%. Further, in test [2], the “COMPATABILITY VALUE K8 [%]” value amounted to 0.18%.

With `CC(CO)CO` [methylpropanediol], in test [1], the “COMPATABILITY VALUE C3 [%]” value is on record as 4.00%. For the same compound, the “COMPATABILITY VALUE K8 [%]” value in test [2] is reported as 4.00%.

As for `O=C(O)CC(O)(CC(=O)O)C(=O)O` [citric acid], the “COMPATABILITY VALUE C3 [%]” value in test [1] came out at 0.33%. The “COMPATABILITY VALUE K8 [%]” value in test [2] was 0.08%.

Consider `CC(=O)Oc1c(C)c(C)c2c(c1C)CCC(C)(CCC[C@H](C)CCC[C@H](C)CCCC(C)C)O2` (some centres unmarked) [tocopheryl acetate], for which, in test [1], the “COMPATABILITY VALUE C3 [%]” value was found to be 1.00%. For the same compound, the “COMPATABILITY VALUE K8 [%]” value in test [2] was 1.00%.
